# Laboratory results from patent publication US10272039B2 (The United States of America, as represented by the …, priority 2014, dated 2019).
# Legend:
# [1] = trial patients; after ingestion of hydroxycarbamide vs after sodium nitrite application
# Procedure: Plasma and whole blood nitrite and nitrate concentrations were collected at the following time points: pre-dose; immediately after application; 5, 10, 15, 20, 30, 45, 60, and 90 min post-dose; 2, 3, 6, 8, 12, 24, and 48 h post-dose; then weekly and at the end of the study. All processing was done at the bedside. Plasma and whole blood nitrite and nitrate were measured with a gas-phase chemiluminescence nitric oxide analyzer, as previously reported (Gladwin et al., Proc Natl Acad Sci USA.; 97: 11482-11487, 2000).
# Therefore, we did a subsequent pharmacokinetic analysis was carried out with respect to the time and dose of hydroxycarbamide intake instead of nitrite cream administration, using a population approach. A two-compartment model was fitted with first-order absorption and elimination to whole blood nitrite concentrations using first-order conditional estimation method by Phoenix NLME 1.2 (Certara USA Inc., St Louis, Mo., USA), and an exponential model was used to describe the inter-individual variability and a mixed-ratio model to describe the intra-individual variability (FIG. 7C).
# [2] = tested on: chronic leg ulcers in patients with sickle cell anaemia; conditions: concomitant use in 9 of 18 trial patients; p=0.96
# Procedure: The primary endpoints were safety and tolerability, with secondary endpoints of pharmacokinetics, blood flow, and wound healing. Pain relief was analysed post hoc. Endpoints were analysed over time for the whole study population and according to dose level.
# Hydroxycarbamide and chronic transfusions were allowed. Patients with acute infections were excluded.
# Originally, it was planned to enroll four cohorts with three patients in each, to give a total of 12 participants. […] The first two doses of cream were administered as inpatients, and the remaining six doses in the outpatient day hospital at the NIH Clinical Center. […] All three patients in each cohort were assessed for the 32-day duration of the study to ensure no dose-limiting toxicities before patients were enrolled into the next cohort. […]
# The study ulcer was selected by the wound care nurse and principal investigator on the basis of ulcer duration, size, and accessibility for digital imaging. […] Ulcers were measured manually with a disposable ruler (longest length and widest width) at each encounter and by digital photography three times: before the first application of cream (baseline), and after 2 weeks and after 4 weeks of treatment. […] The ulcer area was calculated by converting the number of pixels representing the ulcer to cm^2 using a calibrated square (35.48 mm×35.62 mm×6.52 mm) that was placed near the ulcer for reference. […]
# [3] = tested on: sickle cell disease leg ulcers; conditions: published randomised trials; RGD peptide topical, arginine butyrate intravenous; cited from earlier work
compound,measurement,setting,value
NC(=O)NO [hydroxycarbamide],Whole blood nitrite concentrations,[1],increased
same,Association with ulcer healing,[2],not associated with ulcer healing
Arg-Gly-Asp (RGD) peptide,Wound closure,[3],statistically significant increases in wound closure
arginine butyrate,Wound closure,[3],statistically significant increases in wound closure
